According to patent publication US20130165428A1, “XANTHINE DERIVATIVES, THE PREPARATION THEREOF AND THEIR USE AS PHARMACEUTICAL COMPOSITIONS” (Boehringer Ingelheim Pharma GmbH & Co. KG, priority 2001, published 2013):
Where a name gives a salt, the structure may show the parent alone.

Tested on: not given
Test: not given
Settings: not given

melting point | SMILES
146 to 149 °C | CC(C)=CCn1c(N2CCCC(N)C2)nc2c1c(=O)n(C)c(=O)n2CCC#N (centres unmarked) [Example 2(62), 1-methyl-3-(2-cyano-ethyl)-7-(3-methyl-2-buten-1-yl)-8-(3-amino-piperidin-1-yl)-xanthine]
147 °C | Cn1c(=O)c2c(nc(N3CCCC(N)C3)n2C)n(C)c1=O (centres unmarked) [Example 1(115), 1,3,7-trimethyl-8-(3-amino-piperidin-1-yl)-xanthine]
150 °C | Cn1c(=O)c2c(nc(N3CCC(N)C3)n2Cc2ccccc2)n(C)c1=O (centres unmarked) [Example 1, 1,3-dimethyl-7-benzyl-8-(3-amino-pyrrolidin-1-yl)-xanthine]
138 °C | CC(C)=CCn1c(N(C)CC(N)C(=O)N2CCCC2)nc2c1c(=O)n(C)c(=O)n2C (centres unmarked) [Example 2(142), 1,3-dimethyl-7-(3-methyl-2-buten-1-yl)-8-{N-[2-amino-3-oxo-3-(pyrrolidin-1-yl)-propyl]-N-methyl-amino}-xanthine]
115 to 117 °C | CC(C)=CCn1c(N2CCCC(N)C2)nc2c1c(=O)n(C)c(=O)n2C(C)C (centres unmarked) [Example 2(60), 1-methyl-3-isopropyl-7-(3-methyl-2-buten-1-yl)-8-(3-amino-piperidin-1-yl)-xanthine]
226 to 228 °C | CC(C)=CCn1c(N2CCC[C@H](N)C2)nc2c1c(=O)n(CCC(=O)O)c(=O)n2C [Example 6(4), 1-(2-carboxy-ethyl)-3-methyl-7-(3-methyl-2-buten-1-yl)-8-((S)-3-amino-piperidin-1-yl)-xanthine]
140.5 to 143 °C | CC(C)=CCn1c(NCC(C)(C)N)nc2c1c(=O)n(C)c(=O)n2C [Example 1(134), 1,3-dimethyl-7-(3-methyl-2-buten-1-yl)-8-(2-amino-2-methyl-propylamino)-xanthine]
162 to 163.5 °C | CC(C)=CCn1c(N2CCCC(N)C2)nc2c1c(=O)n(CCc1cc(F)cc(F)c1)c(=O)n2C (centres unmarked) [Example 2(36), 1-[2-(3,5-difluoro-phenyl)-ethyl]-3-methyl-7-(3-methyl-2-buten-1-yl)-8-(3-amino-piperidin-1-yl)-xanthine]
228 to 235 °C | CC(C)=CCn1c(N2CCCC(N)C2)nc2c1c(=O)n(CCc1ccccc1)c(=O)n2CC(=O)O (centres unmarked) [Example 6(5), 1-(2-phenyl-ethyl)-3-carboxymethyl-7-(3-methyl-2-buten-1-yl)-8-(3-amino-piperidin-1-yl)-xanthine]
159 to 160 °C | CC(C)=CCn1c(N2CCCC(N)(C(=O)N3CCCC3)C2)nc2c1c(=O)n(C)c(=O)n2C (centres unmarked) (as salt: sodium) [Example 1(139), 1,3-dimethyl-7-(3-methyl-2-buten-1-yl)-8-[3-amino-3-(pyrrolidin-1-ylcarbonyl)-piperidin-1-yl]-xanthine]
102 to 105 °C | COC(=O)Cn1c(=O)c2c(nc(N3CCC[C@H](N)C3)n2CC=C(C)C)n(C)c1=O [Example 2(19), 1-[(methoxycarbonyl)-methyl]-3-methyl-7-(3-methyl-2-buten-1-yl)-8-((S)-3-amino-piperidin-1-yl)-xanthine]
141 to 144 °C | CC(C)=CCn1c(NC[C@@H](C)N)nc2c1c(=O)n(C)c(=O)n2C [Example 1(135), 1,3-dimethyl-7-(3-methyl-2-buten-1-yl)-8-((R)-2-amino-propylamino)-xanthine]
142 to 144 °C | CCOC(=O)c1ccc(CCn2c(=O)c3c(nc(N4CCC[C@H](N)C4)n3CC=C(C)C)n(C)c2=O)cc1 [Example 2(21), 1-{2-[4-(ethoxycarbonyl)-phenyl]-ethyl}-3-methyl-7-(3-methyl-2-buten-1-yl)-8-((S)-3-amino-piperidin-1-yl)-xanthine]

The next lines start with the molecule.

SMILES | melting point
CN[C@H]1CCCC[C@H]1Nc1nc2c(c(=O)n(C)c(=O)n2C)n1CC=C(C)C (relative stereo) [Example 1(77), 1,3-dimethyl-7-(3-methyl-2-buten-1-yl)-8-[cis-(2-methylamino-cyclohexyl)amino]-xanthine] | 172.5 to 175 °C
C#CCCn1c(=O)c2c(nc(N3CCCC(N)C3)n2CC=C(C)C)n(C)c1=O (centres unmarked) [Example 1(65), 1-(3-butyn-1-yl)-3-methyl-7-(3-methyl-2-buten-1-yl)-8-(3-amino-piperidin-1-yl)-xanthine] | 150 to 152 °C
CC(C)=CCn1c(N2CCCC(N)C2)nc2c1c(=O)n(CCc1cccc([N+](=O)[O-])c1)c(=O)n2C (centres unmarked) [Example 1(99), 1-[2-(3-nitro-phenyl)-ethyl]-3-methyl-7-(3-methyl-2-buten-1-yl)-8-(3-amino-piperidin-1-yl)-xanthine] | 120.8 to 122 °C
CC(C)=CCn1c(N2CCCC(N)C2)nc2c1c(=O)n(CCn1cccc1)c(=O)n2C (centres unmarked) [Example 1(61), 1-[2-(pyrrol-1-yl)-ethyl]-3-methyl-7-(3-methyl-2-buten-1-yl)-8-(3-amino-piperidin-1-yl)-xanthine] | 136 to 138.6 °C
CC(C)=CCn1c(N2CCCC(N)C2)nc2c1c(=O)n(CCc1cccc(F)c1)c(=O)n2C (centres unmarked) [Example 1(98), 1-[2-(3-fluoro-phenyl)-ethyl]-3-methyl-7-(3-methyl-2-buten-1-yl)-8-(3-amino-piperidin-1-yl)-xanthine] | 126.8 to 127.5 °C
COc1cccc(CCn2c(=O)c3c(nc(N4CCCC(N)C4)n3CC=C(C)C)n(C)c2=O)c1 (centres unmarked) [Example 1(86), 1-[2-(3-methoxy-phenyl)-ethyl]-3-methyl-7-(3-methyl-2-buten-1-yl)-8-(3-amino-piperidin-1-yl)-xanthine] | 118.5 to 119.5 °C
CC(C)=CCn1c(N2CCCC(N)C2)nc2c1c(=O)n(CCc1cccc(Br)c1)c(=O)n2C (centres unmarked) [Example 1(87), 1-[2-(3-bromo-phenyl)-ethyl]-3-methyl-7-(3-methyl-2-buten-1-yl)-8-(3-amino-piperidin-1-yl)-xanthine] | 116.5 to 117.5 °C
CC(C)=CCn1c(N2CCCC(N)C2)nc2c1c(=O)n(CCc1ccc(C)cc1)c(=O)n2C (centres unmarked) [Example 1(100), 1-[2-(4-methyl-phenyl)-ethyl]-3-methyl-7-(3-methyl-2-buten-1-yl)-8-(3-amino-piperidin-1-yl)-xanthine] | 129 to 130.2 °C
CC(C)=CCn1c(N2CCCC(N)C2)nc2c1c(=O)n(CCc1c(C)cc(C)cc1C)c(=O)n2C (centres unmarked) [Example 1(36), 1-[2-(2,4,6-trimethyl-phenyl)-ethyl]-3-methyl-7-(3-methyl-2-buten-1-yl)-8-(3-amino-piperidin-1-yl)-xanthine] | 153 to 154.5 °C
CC(C)=CCn1c(N2CCC[C@H]2CN)nc2c1c(=O)n(C)c(=O)n2C [Example 1(76), 1,3-dimethyl-7-(3-methyl-2-buten-1-yl)-8-{(S)-[2-(aminomethyl)-pyrrolidin-1-yl]}-xanthine] | 112 to 115 °C
C=CCCn1c(=O)c2c(nc(N3CCCC(N)C3)n2CC=C(C)C)n(C)c1=O (centres unmarked) [Example 1(66), 1-(3-butene-1-yl)-3-methyl-7-(3-methyl-2-buten-1-yl)-8-(3-amino-piperidin-1-yl)-xanthine] | 111 to 112.6 °C
CC(C)=CCn1c(N2CCC(N)C2)nc2c1c(=O)n(C)c(=O)n2C (centres unmarked) [Example 1(1), 1,3-dimethyl-7-(3-methyl-2-buten-1-yl)-8-(3-amino-pyrrolidin-1-yl)-xanthine] | 119 °C
CC(C)=CCn1c(N2CCCC(N)C2)nc2c1c(=O)n(CCc1ccc(Cl)cc1Cl)c(=O)n2C (centres unmarked) [Example 1(37), 1-[2-(2,4-dichloro-phenyl)-ethyl]-3-methyl-7-(3-methyl-2-buten-1-yl)-8-(3-amino-piperidin-1-yl)-xanthine] | 130 to 132 °C

Molecular target: T1, DPP-IV (Homo sapiens, UniProt P27487)
T1 construct: an extract of the human colon carcinoma cell line Caco-2 is used as the DPP IV source; host or cells: Caco-2 (differentiated to induce DPP-IV expression), Nonidet-P40 solubilised extract
T1 sequence (P27487 whole entry): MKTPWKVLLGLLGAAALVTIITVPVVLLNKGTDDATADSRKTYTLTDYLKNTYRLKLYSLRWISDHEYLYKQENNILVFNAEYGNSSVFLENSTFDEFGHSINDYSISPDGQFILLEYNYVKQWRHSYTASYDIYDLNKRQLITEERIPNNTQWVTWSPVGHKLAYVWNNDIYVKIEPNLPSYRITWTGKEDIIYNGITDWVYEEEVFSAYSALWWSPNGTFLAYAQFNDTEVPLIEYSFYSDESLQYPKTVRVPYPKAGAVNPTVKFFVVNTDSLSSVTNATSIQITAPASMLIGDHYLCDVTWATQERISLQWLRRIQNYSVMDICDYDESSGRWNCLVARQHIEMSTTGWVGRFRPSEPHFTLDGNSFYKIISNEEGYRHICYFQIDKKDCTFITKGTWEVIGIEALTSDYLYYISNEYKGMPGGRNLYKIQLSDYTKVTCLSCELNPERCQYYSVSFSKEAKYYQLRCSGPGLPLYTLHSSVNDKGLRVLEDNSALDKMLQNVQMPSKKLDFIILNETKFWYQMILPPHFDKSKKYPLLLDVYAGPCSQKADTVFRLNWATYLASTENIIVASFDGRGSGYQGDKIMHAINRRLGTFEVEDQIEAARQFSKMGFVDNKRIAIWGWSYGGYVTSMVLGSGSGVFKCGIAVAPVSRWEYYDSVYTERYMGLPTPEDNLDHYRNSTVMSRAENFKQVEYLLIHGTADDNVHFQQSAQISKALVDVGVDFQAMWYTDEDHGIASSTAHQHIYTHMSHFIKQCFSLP
Test: DPP-IV assay with extract of Caco-2 cells as DPP IV source
Type: biochemical
Settings: extract of human colon carcinoma cell line Caco-2 as DPP IV source, substrate AFC 100 μM, 60 minutes, ambient temperature; read-out: DPP IV inhibition IC50
Method: This cell line was obtained from the American Type Culture Collection (ATCC HTB 37). […] The cell extract was obtained from cells solubilised in a buffer (10 mM Tris HCl, 0.15 M NaCl, 0.04 t.i.u. aprotinin, 0.5% Nonidet-P40, pH 8.0) by centrifugation at 35,000 g for 30 minutes at 4° C. (to remove cell debris).
The DPP-IV assay was carried out as follows:
50 μl of substrate solution (AFC; AFC is amido-4-trifluoromethylcoumarin), final concentration 100 μM, were placed in black microtitre plates. 20 μl of assay buffer (final concentrations 50 mM Tris HCl pH 7.8, 50 mM NaCl, 1% DMSO) was pipetted in. The reaction was started by the addition of 30 μl of solubilised Caco-2 protein (final concentration 0.14 μg of protein per well). The test substances under investigation were typically added prediluted to 20 μl, while the volume of assay buffer was then reduced accordingly. The reaction was carried out at ambient temperature, the incubation period was 60 minutes. […] Dummy values (corresponding to 0% activity) were obtained in mixtures with no Caco-2 protein (volume replaced by assay buffer), control values (corresponding to 100% activity) were obtained in mixtures without any added substance.

IC50 | SMILES
0.125 µM | CC(C)=CCn1c(N2CCCC(N)C2)nc2c1c(=O)n(CCO)c(=O)n2C (centres unmarked) [1(27), 1-(2-hydroxyethyl)-3-methyl-7-(3-methyl-2-buten-1-yl)-8-(3-amino-piperidin-1-yl)-xanthine]
0.205 µM | CCn1c(=O)n(C)c(=O)c2c1nc(N1CCCC(N)C1)n2Cc1ccccc1 (centres unmarked) [1(34), 1-methyl-3-ethyl-7-benzyl-8-(3-amino-piperidin-1-yl)-xanthine]
0.212 µM | CC(C)=CCn1c(N2CCCNCC2)nc2c1c(=O)n(CCc1ccccc1)c(=O)n2C [1(97), 1-(2-phenyl-ethyl)-3-methyl-7-(3-methyl-2-buten-1-yl)-8-(homopiperazin-1-yl)-xanthine]
0.006 µM | CC(C)=CCn1c(N2CCCC(N)C2)nc2c1c(=O)n(CC(=O)c1cccc(OCC#N)c1)c(=O)n2C (centres unmarked) [2(88), 1-[2-(3-cyanomethoxy-phenyl)-2-oxo-ethyl]-3-methyl-7-(3-methyl-2-buten-1-yl)-8-(3-amino-piperidin-1-yl)-xanthine]
0.032 µM | Cn1c(=O)c2c(nc(N3CCCC(N)C3)n2Cc2ccccc2)n(CCc2ccccc2)c1=O (centres unmarked) [1(70), 1-methyl-3-(2-phenyl-ethyl)-7-benzyl-8-(3-amino-piperidin-1-yl)-xanthine]
0.624 µM | CC(C)=CCn1c(N2CCCC(N)C2)nc2c1c(=O)[nH]c(=O)n2C (centres unmarked) [1(15), 3-methyl-7-(3-methyl-2-buten-1-yl)-8-(3-amino-piperidin-1-yl)-xanthine]
